Data: US11407741B2, “Compounds and their use as selective inhibitors of caspase-2” (priority 2017, dated 2022)
Where a SMILES comes first, the peptide text is derived from it. [ ]: non-standard residue; d: D form. The star is where a group is joined. Pro(3S-CH2tBu) = CC(C)(C)C[C@H]1CCN[C@@H]1C(=O)O; Quinaldoyl = O=C(c1ccc2ccccc2n1)*; X1 = c1ncc(CO*)s1

Molecular target: T1, Casp-2 (Homo sapiens, UniProt P42575)
T1 construct: the Caspase-2 and Caspase-3 are human recombinant active enzymes; purchased Enzo Life ALX-201-057-U100
T1 sequence (P42575 170-325 limits assumed): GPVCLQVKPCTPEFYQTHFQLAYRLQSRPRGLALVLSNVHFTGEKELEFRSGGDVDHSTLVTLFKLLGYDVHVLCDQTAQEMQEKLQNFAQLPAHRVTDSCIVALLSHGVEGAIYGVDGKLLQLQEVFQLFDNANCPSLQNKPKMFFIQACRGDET
T1 sequence (P42575 348-452 limits assumed): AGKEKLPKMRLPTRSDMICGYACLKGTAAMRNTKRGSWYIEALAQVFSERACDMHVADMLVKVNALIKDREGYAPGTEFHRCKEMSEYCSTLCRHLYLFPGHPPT
Assay: Caspase-2 inhibition assay for reversible inhibitors (IC50, Ki, dilution method)
Type: biochemical
Description: A preliminary step in the characterization of an inhibitor is the determination of its IC50. The IC50 is the necessary concentration of an inhibitor to decrease the enzyme activity by 50% of its maximum and uninhibited value.
The compound, at different concentrations, is incubated with the enzyme and buffer for 30 minutes at 37° C. to allow formation of the Enzyme-Inhibitor complex. The reaction is initiated by addition of buffer and substrate, and then activity is measured over 15 minutes for the determination of initial velocities.
The enzyme and the inhibitor (or DMSO as control) are incubated for 30 minutes at 37° C. The complex thus formed is diluted to 100th in the buffer/substrate mixture and then the activity measurement is started over 20 minutes. The initial rate obtained for the DMSO represents the 100% activity and will serve as a reference for the quantification of the residual activity of the enzyme in the presence of the inhibitor.
The reaction is started over 20 minutes upon addition of the buffer-substrate mixture.
Initial velocity values in RFU·min^−1 are reduced to Specific Activity (SA)values (pmol/min/μg enzyme) from an AMC standard range (1 RFU→0.02 pmol).
The evolution of the ratio 1/SA as a function of 1/[S] makes it possible to obtain the so-called double-inverse graph of Lineweaver-Burk from equation 4 (eq.4) where Vmaxapp and KMapp are the parameters which vary according to the type inhibition and as a function of inhibitor concentration. The intersection of the lines obtained for increasing inhibitor concentrations makes it possible to distinguish different types of inhibitors.
A secondary graph, obtained from the values of the slopes of the Lineweaver-Burk plot as a function of the concentration of inhibitor, makes it possible to obtain the value of the Ki. Its value is given by the abscissa point at the origin.
The initial velocity V0 is expressed from equation 8 (eq.8), where Vmax is the maximum reaction rate (reached when the enzyme is saturated with substrate), [S] the substrate concentration, KM is the Michaelis-Menten constant (substrate concentration corresponding to Vmax/2), Ki is the dissociation constant which accounts for the affinity of the inhibitor for the enzyme.

## CC(C)[C@H](NC(=O)c1ccc2ccccc2n1)C(=O)N[C@@H](CC(=O)O)C(=O)N[C@H](C(=O)N1CC[C@H](CC(C)(C)C)[C@H]1C(=O)N[C@@H](CC(=O)O)C(=O)OCc1cncs1)C(C)C [Compound 3, (S)-4-(((S)-1-((2S,3S)-2-(((S)-3-carboxy-1-oxo-1-(thiazol-5 - ylmethoxy)propan-2-yl)carbamoyl)-3-neopenthylpyrrolidin-1-yl)-3-methyl-1-oxobutan-2-yl)amino)-3-((S)-3-methyl-2-(quinoline-2-carboxamido)butanamido)-4-oxobutanoic acid] (Quinaldoyl-VDV[Pro(3S-CH2tBu)]D-X1)
  Selectivity Indexes (KiCasp3/KiCasp2): >>1000
  potency on Casp-2: still powerful on Casp-2
  type of inhibition (reversible), dilution method: reversible inhibitor
From IC50 on Casp-2 and Caspase-3
  Casp-2 selectivity: Casp2-selective
